From patent US20260259169A1, “BETA-LACTAMASE SUBSTRATE COMPOUNDS AND ELECTROCHEMICAL DETECTION METHODS USING THEM” (priority 2023, published 2026)
Where two headings read alike, the source gives them in different places.

What was measured:
[1] = target: KPC (Klebsiella pneumoniae, UniProt Q9F663); assay: Amperometric measurement of oxidation current with KPC in TPTZ buffer; assay type: biochemical; conditions: for detection of the beta-lactamases (oxidation current): KPC concentrations detected: succinate buffer pH 5.5, KPC 239.4, 59.85, 9.975 and 4.985 ng/ml; for detection of the beta-lactamases (oxidation current): KPC concentrations detected / detection of the beta-lactamase concentration of 9.975 ng/mL / detection of the lowest tested concentration of KPC / detection of the highest concentration of KPC: 30 minutes at 37° C.; for detection of the beta-lactamase concentration of 9.975 ng/mL: KPC 9.975 ng/mL; for detection of the lowest tested concentration of KPC / detection of the highest concentration of KPC: 6.0 mM substrate; for detection of the lowest tested concentration of KPC: KPC 59.85 ng/ml; for detection of the highest concentration of KPC: KPC 239.4 ng/ml
Method: A medium comprising 1.2 mM of substrate in a succinate buffer of pH 5.5 was prepared for each of the 8 beta-lactamase substrate compounds (7 inventive ones and the HMRZ-86 reference one).
4 different samples to be analyzed were prepared, each comprising KPC as beta-lactamase in a standard 2,4,6-tri-2-pyridinyl-1,3,5-triazine (TPTZ) buffer but in different concentrations: 239.4, 59.85, 9.975 and 4.985 ng/ml (ng of KPC per mL of TPTZ buffer). The two first concentrations of KPC aim to determine the capacity of the derivative to detect the presence of beta-lactamase whereas the two lowest concentrations aim to address the limit of detection.
Each of the […] (in other words 32 combinations) and incubated for 30 minutes at 37° C. Next, an amperometric measurement was performed on all 32 of the incubated mediums, and the oxidation current was determined. The device used was a Metrohm Dropsens and the electrodes were Metrohm Dropsens SCPE 110 electrodes. The oxidation current is the maximum current value measured between 0.1 V and 0.5 V vs. Ag/AgCl.
To test the impact of the concentration of the beta-lactamase substrate compound on the possibility to detect beta-lactamases, a further medium comprising 2.4 mM of the beta-lactamase substrate compound with R being 2-nitro-4-cyanophenyl was prepared. […] The same four beta-lactamase concentrations as in Example 1 were tested (i.e. the same samples). The incubation and measurement were performed as in Example 1.
A medium comprising 6.0 mM of each substrate in a succinate buffer of pH 5.5 was prepared. 2 different samples to be analyzed were prepared, each comprising KPC as beta-lactamase type in a standard 2,4,6-tri-2-pyridinyl-1,3,5-triazine (TPTZ) buffer, but in different concentrations: 239.4 ng/ml and 59.85 ng/ml, respectively (ng of KPC per mL of TPTZ buffer). Each of the […] was added to each of the 2 mediums (in other words 6 combinations) and incubated for 30 minutes at 37° C. Next, an amperometric measurement was performed on all 6 of the incubated mediums, and the oxidation current was determined. The equipment used was the same as that of Example 1.

[2] = system: bacteria strains that produce KPC/OXA-48; assay: Amperometric detection in blood culture; assay type: cell-based; conditions: 2.4 mM versus HMRZ-86 1.2 mM
Method: (§1) The possibility of the beta-lactamase substrate compounds to detect bacteria strains producing different beta-lactamases was tested for the reference HMRZ-86 of example 1 (at 1.2 mM) and the beta-lactamase substrate compound with R being 2-nitro-4-cyano of Example 1 (at 2.4 mM). […] Consequently, amperometric voltammetry of the negative control with ATCC should give an oxidation current of 0 nA for the measurement to be valid.

[3] = NMR stability study in relation to a 22 mM succinate buffer reference; assay type: physicochemical
Method: (§2) The stability of the beta-lactamase substrate compounds over time at different temperatures was tested the reference HMRZ-86 of example 1 (at 1.2 mM) and the beta-lactamase substrate compound with R being 2-nitro-4-cyano of Example 1 (at 2.4 mM).
The stability of both beta-lactamase substrate compounds was also tested in relation to a 22 mM succinate buffer reference. […] Contrary to the dimethylformamide (DMF) reference, the degradation in relation to the succinate buffer was similar for both substrate compounds, with the first degradation starting after 2 weeks at both temperatures.

[4] = system: bacteria strains that produce VIM type; assay: Amperometric detection in blood culture; assay type: cell-based; conditions: 2.4 mM versus HMRZ-86 1.2 mM
Method: as §1
The beta-lactamase with group β being CF3 (6.0 mM), as well as the reference HMRZ-86 (1.2 mM) were also tested with blood cultures comprising bacteria strains producing the carbapenemase KPC type, the metallo-beta-lactamase VIM type and the metallo-beta-lactamase NDM type, as well as a blood culture comprising no bacteria strains producing beta-lactamases (negative control ATCC).

[5] = NMR stability study in relation to a dimethylformamide (DMF) reference; assay type: physicochemical
Method: More particularly, when the degradation is determined by means of NMR measurements, a first sample comprising the beta-lactamase substrate compound according to the present disclosure and a second sample comprising the reference, e.g. DMF, are heated or cooled to a predefined temperature, after which the NMR measurement is performed on both samples (measurement at time=0). The same measurement is repeated on the samples after a predefined time (time=x), while their temperature is kept constant at the predefined temperature from time=0 to time=x. The difference of the integration of NMR measurement signals of both samples is determined by comparing between time=0 and time=x, thereby allowing to define the degree (percentage) of degradation of the beta-lactamase substrate compound at time=x.
as §2
The stability was tested by a NMR stability study. The degradation was measured by measuring the evolution of the integration of NMR measurement signals of the molecule in relation to a dimethylformamide (DMF) reference. The stability of the beta-lactamase substrate compound is expressed by the percentage of degradation in function of time.
The stability of all 3 beta-lactamase substrate compounds (R being 4-cyanophenyl, group β being H, CH3 and CF3, respectively), as well as the beta-lactamase having the same group R and a group β according to formula II was tested at 20° C. in DMF as reference.

[6] = system: CTXM; assay: Amperometric detection of beta-lactamase type producing bacteria strains; assay type: cell-based; conditions: 6.0 mM substrate, HMRZ-86 1.2 mM; qualitative
Method: (§3) The possibility to detect different beta-lactamase type producing bacteria strains was also tested. As reference, a reference medium comprising 1.2 mM beta-lactamase substrate compound HMRZ-86 was prepared as well.

[7] = system: OXA-40; assay: as above; assay type: cell-based; conditions: 6.0 mM substrate, HMRZ-86 1.2 mM; qualitative
Method: as §3

[8] = system: OXA-48; assay: as above; assay type: cell-based; conditions: 6.0 mM substrate, HMRZ-86 1.2 mM; qualitative
Method: as §3

[9] = system: OXA-58; assay: as above; assay type: cell-based; conditions: 6.0 mM substrate, HMRZ-86 1.2 mM; qualitative
Method: as §3

Q: Which “detection of the beta-lactamases (oxidation current): KPC concentrations detected” value ([1]; 1.2 mM substrate) does the source give for `CC(C)(ON=C(C(=O)NC1C(=O)N2C(C(=O)O)=C(C=Cc3ccc(C#N)cc3C#N)CSC12)c1csc(N)n1)C(=O)O` (stereo not drawn) [2,4-dicyano] here?
A: Its value is “only the 2 highest concentrations were detected”.

Q: Which “oxidation current compared with HMRZ-86” value [2] does the source give for `CC(C)(ON=C(C(=O)NC1C(=O)N2C(C(=O)O)=C(C=Cc3ccc(C#N)cc3[N+](=O)[O-])CSC12)c1csc(N)n1)C(=O)O` (stereo not drawn) [2-nitro-4-cyano] here?
A: The value was “significantly higher”.

Q: And the “time at which the first degradation starts” value ([3]; 4° C.)?
A: Its value is 2 weeks.

Q: And the “time at which the first degradation starts” value ([3]; 20° C.)?
A: The value was 2 weeks.

Q: What about the “detection of the beta-lactamases (oxidation current): KPC concentrations detected” value ([1]; 1.2 mM substrate) of the same compound?
A: The value was “all 4 concentrations”.

Q: And the “oxidation current compared with 1.2 mM HMRZ-86 reference” value ([1]; 2.4 mM substrate, 4 KPC concentrations)?
A: The value was “in line with these of the 1.2 mM HMRZ-86 reference”.

Q: What about the “oxidation current compared with 1.2 mM HMRZ-86 reference, 2 highest beta-lactamase concentrations” value ([1]; 2.4 mM substrate, KPC 239.4 and 59.85 ng/ml) of the same compound?
A: The value was “higher than the reference”.

Q: And the “oxidation current on increasing the substrate concentration” value ([1]; 2.4 mM versus 1.2 mM substrate, 4 KPC concentrations)?
A: Its value is “significantly increases the oxidation current”.

Q: What about the “oxidation current compared with HMRZ-86” value [4] of the same compound?
A: Its value is “significantly higher”.

Q: For `CC(C)(ON=C(C(=O)NC1C(=O)N2C(C(=O)O)=C(C=Cc3ccc([N+](=O)[O-])c([N+](=O)[O-])c3)CSC12)c1csc(N)n1)C(=O)O` (stereo not drawn) [3,4-dinitrophenyl], which “detection of the beta-lactamase concentration of 9.975 ng/mL” value ([1]; 1.2 mM substrate) is on record?
A: Its value is “could detect”.

Q: Which “detection of the beta-lactamase concentration of 9.975 ng/mL” value ([1]; 1.2 mM substrate) does the source give for `CC(C)(ON=C(C(=O)NC1C(=O)N2C(C(=O)O)=C(C=Cc3cc([N+](=O)[O-])cc([N+](=O)[O-])c3)CSC12)c1csc(N)n1)C(=O)O` (stereo not drawn) [3,5-dinitrophenyl] here?
A: The value was “this was not the case”.

Q: What does the source list for `CC(C)(ON=C(C(=O)NC1C(=O)N2C(C(=O)O)=C(C=Cc3ccc(C#N)cc3)CSC12)c1csc(N)n1)C(=O)O` (stereo not drawn) [4-cyanophenyl]?
A: degradation ([5]; 20° C., up to 26 weeks, DMF reference): no signs of degradation; oxidation current, compared among R groups with a single moiety at the para-position ([1]; 1.2 mM substrate, 4 KPC concentrations, FIG. 2): highest oxidation currents

Q: Which “time of first signs of degradation” value ([5]; 20° C., DMF reference, up to 26 weeks) does the source give for `CC(=O)NC1C(=O)N2C(C(=O)O)=C(C=Cc3ccc(C#N)cc3)CSC12` (stereo not drawn) [CH3] here?
A: The value was 1 weeks.

Q: And the “detection (oxidation current)” value [6]?
A: Its value is “detect OXA-48 type only”.

Q: And the “detection (oxidation current)” value [7]?
A: The value was “detect OXA-48 type only”.

Q: What about the “detection (oxidation current)” value [8] of the same compound?
A: The value was “detect OXA-48 type only”.

Q: And the “detection (oxidation current)” value [9]?
A: Its value is “detect OXA-48 type only”.

Q: And the “detection of the lowest tested concentration of KPC” value [1]?
A: The value was “only the “H” and “CF3” groups are capable to detect the lowest tested concentration”.

Q: What about the “detection of the highest concentration of KPC” value [1] of the same compound?
A: Its value is “capable to detect”.

Q: What does the source list for `N#Cc1ccc(C=CC2=C(C(=O)O)N3C(=O)C(NC=O)C3SC2)cc1` (stereo not drawn) [H]?
A: time of first signs of degradation [5]: 13 weeks; detection (oxidation current) [6]: capable of detecting; detection (oxidation current) [7]: capable of detecting; detection (oxidation current) [8]: capable of detecting; detection (oxidation current) [9]: capable of detecting; detection of the lowest tested concentration of KPC [1]: capable to detect; detection of the highest concentration of KPC [1]: capable to detect
